Experiment: Forced stress screen (AIBN, peroxide, 0.1N NaOH)
Format: physicochemical
Procedure: 0.05 mg/mL stock solutions of Compound A were prepared by adding […] of Compound A to a 50 mL volumetric flask and diluted to volume with either 50/50 water/methanol (stock solution A), or 50/50 water/acetonitrile (stock solution B).
An azobisisobutyronitrile (AIBN) stress solution was prepared by dissolving 7.77 mg of AIBN in 10 mL of stock solution A in an amber volumetric flask and sonicating to dissolve. The AIBN control solution was prepared by dissolving 8.48 mg of AIBN in 10 mL of 50/50 methanol/water in an amber volumetric flask. Both solutions were placed in an oven at 40° C. for 24 hours.
A peroxide stress solution was prepared by adding 1.0 mL of 3% hydrogen peroxide to 9.0 mL of stock solution A in a volumetric flask. An aliquot of the solution was placed into an amber vial kept at room temperature, and another aliquot was stored at 5° C. for 24 hours. The peroxide control solution was prepared by adding 1.0 mL of 3% hydrogen peroxide to 9.0 mL 50/50 methanol/water in an amber volumetric flask. This solution was kept at room temperature for 24 hours.
A 0.1N NaOH stress solution was prepared by adding 1.0 mL of 1N sodium hydroxide to 9.0 mL of stock solution B in an amber volumetric flask. One sample was kept at room temperature, and the identical sample was placed in an oven at 60° C. for 24 hours. A 0.1N NaOH control solution was prepared by adding 1.0 mL of 1N sodium hydroxide to 9.0 mL of 50/50 acetonitrile/water in an amber volumetric flask.
No major degradation was observed under AIBN or 0.1N NaOH base stress. […] The percent of Compound A was calculated based on the area count of active peak in the control samples compared to stress samples.

Structure (SMILES): Nc1nc2c(ncn2[C@@H]2O[C@@H]3CO[P@@](=O)(S)O[C@H]4[C@H](F)[C@H](n5cnc6c(N)ncnc65)O[C@@H]4CO[P@@](=O)(S)O[C@@H]2[C@@H]3F)c(=O)[nH]1 (single isomer, unassigned) [Compound A]
- Sensitive for Hydrolysis or Oxidation (0.1 N NaOH base stress, in 0.1 N NaOH after 24h/RT): No sensitivity; <5% drug loss
- Sensitive for Hydrolysis or Oxidation (AIBN stress): No sensitivity; <5% drug loss
- Sensitive for Hydrolysis or Oxidation (Peroxide stress at 5° C.): High sensitivity; >10% drug loss
- Sensitive for Hydrolysis or Oxidation (Peroxide stress at RT): High sensitivity; >10% drug loss
- Sensitivity to two-electron oxidative processes (forced stress): highly sensitive

— patent US20220175811A1, “STABLE FORMULATIONS OF CYCLIC DINUCLEOTIDE STING AGONIST COMPOUNDS AND METHODS OF USE THEREOF” (Merck Sharp & Dohme Corp., priority 2019, published 2022)
